{"source": "patent US20120264159A1", "about": "“SCREENING SYSTEM FOR MODULATORS OF HER2 MEDIATED TRANSCRIPTION AND HER2 MODULATORS IDENTIFED THEREBY” (BUCK INSTITUTE FOR AGE RESEARCH, priority 2001, published 2012)", "key": {"[1]": {"tested_on": "ErbB2 transcript synthesis", "assay": "Nuclear run-off assay of ErbB2 transcript synthesis in SKBR3 cells", "format": "cell-based, human", "conditions": "5 hours, 0.4 μM TSA", "method": "The conserved and singular DNase I hypersensitivity sites found in the proximal ErbB2 and ESX promoters (12,15) were assayed as before (12). Briefly, following culture treatment of cells, nuclei isolated by mild detergent lysis in a buffer containing 10 mM Hepes pH 7.9, 1.5 mM MgCl2, 10 mM KCl, 0.4% NP-40, 10% glycerol and 1 mM DTT. […]\nNuclear run-off experiments were performed on ErbB2 overexpressing breast cancer cells to confirm the conclusion drawn from TSA induced downregulation of luciferase expression in MCF/R06pGL-9 cells that HDAC inhibitors can suppress ErbB2 promoter activity and presumably also repress ErbB2 transcription. […] Slot blot hybridization stringency was adjusted so that no signal could be detected from those control slots containing the empty plasmid."}, "[2]": {"tested_on": "NCI panel of 60 human cancer cell lines", "conditions": "NCI/DTP screen, 60 human cancer cell line panel; read-out: median cytotoxic concentration (LC50); cited from earlier work"}, "[3]": {"tested_on": "RO6 HER2 promoter", "assay": "Basal promoter activity of MCF-7b stable RO6 populations", "format": "cell-based, human", "conditions": "10 nM, 24 hours, serum-free media, clone and polyclonal populations", "method": "Parental cell lines MCF-7, and MDA-453 were transfected with the construct Ro6pGL (FIG. 2) in conjunction with pcMneo construct using lipid-based transfection (Effectene) at a ratio of 20:1 reporter:selectable marker (see, FIG. 4). Monoclonal and polyclonal populations were selected in 0.5 mg/ml G418 over 2 to 4 weeks.\nReporter activity was assayed as follows: From T-150 or T-75 culture flasks, about […] cells/well were plated into a 96 well plate format for high-throughput screening. 24 hours post plating a test agent e.g. a drug from a combinatorial library, was added to the wells at various concentrations. Certain wells were used as controls (e.g. PBS or DMSO vehicle only). Replicate wells ([…] per drug concentration) were run. 24 hours after addition of the test agent the cells were lysed, a luciferase reagent was added and activity in each well was read using a high-throughput screening plate reader (labsystems Fluoroskan). Parallel plates were run for cell viability using an MTT assay (Sigma)."}, "[4]": {"tested_on": "MCF/R06pGL-9 cells", "assay": "MTT cell viability assay on MCF/R06pGL-9 cells", "format": "cell-based, human", "excerpt": "A luciferase reporter plasmid (designated RO6pGL-luc) was constructed by inserting the ˜500 bp SmaI-SmaI fragment of the human ErbB2 proximal promoter (12) into the pGL3Basic plasmid driving a luciferase reporter gene, as has been described (10). R06pGL-luc and a plasmid expressing neomycin phosphotransferase were co-transfected into the MCF-7 cells (ATCC) using Effectene (Qiagen). Cells were selected for stable expression of luciferase and neomycin (G418)-resistance. Single cell clones including MCF/R06pGL-9 were isolated and maintained in DME H-16 medium supplemented with 10% fetal bovine serum, 10 μg/ml insulin, 100 μg/ml penicillin/streptomycin, and 500 μg/ml G418. MTT cell viability and luciferase expression assays on the MCF/RO6pGL-9 sublime were performed after plating the subline into 96-well culture dishes at a density of 10^4 cells/well in 100 μL medium. After 24 hour cell plating, TSA from stock DMSO solution was diluted into 100 μL medium and then added into eight replicate wells at the indicated concentrations. […] The reaction was quantified by absorbance at 570 nm measured with a microplate reader (Molecular Devices) and the mean (±SD) optical density recorded after normalization by the vehicle treated controls. […]"}, "[5]": {"tested_on": "ESX transcript", "assay": "Northern blot of ESX transcript levels in SKBR3 cells", "format": "cell-based, human", "conditions": "24 hours TSA treatment", "method": "The conserved and singular DNase I hypersensitivity sites found in the proximal ErbB2 and ESX promoters (12,15) were assayed as before (12). Briefly, following culture treatment of cells, nuclei isolated by mild detergent lysis in a buffer containing 10 mM Hepes pH 7.9, 1.5 mM MgCl2, 10 mM KCl, 0.4% NP-40, 10% glycerol and 1 mM DTT. Partial DNase I digestions were carried out by varying DNase I treatment times (0-15 minutes at 37( ) at a fixed DNase I concentrations (0.5-1.0 units per 10^6 nuclei). After purifying and restricting the DNA, it was electrophoresed through 0.7% agarose gels and blotted onto nylon membranes, UV-crosslinked and hybridized with randomly ^32P-labelled ErbB2 and ESX promoter probes, as similarly performed for routine Southern blotting. For Northern blotting, total (treated vs. control) cell RNA (10 μg/sample lane) was isolated using TRIzol (Invitrogen) according to manufacturer's specifications, electrophoresed into 1% agarose-formaldehyde gels and transferred onto membranes that were then hybridized with ^32P-labelled ErbB2 and ESX cDNA probes. For transcriptional run-off assays cell nuclei were first isolated from treated and control cells as described for the DNase I studies. […]"}}, "data": [{"compound": "CC(/C=C/C(=O)NO)=C\\[C@@H](C)C(=O)c1ccc(N(C)C)cc1", "note": "[TSA, trichostatin A]", "values": [{"measurement": "synthesis of new ErbB2 transcripts", "setting": "[1]", "value": "profoundly suppresses synthesis of new ErbB2 transcripts"}, {"measurement": "CC50", "setting": "[2]", "value": "> 10", "unit": "µM"}, {"measurement": "basal promoter activity", "setting": "[3]", "value": "decreased basal promoter activity"}, {"measurement": "cell viability (MTT assay)", "setting": "[4]; 24 hours exposure, TSA concentrations up to 50 μM", "value": "little impact on cell viability"}, {"measurement": "cell viability (MTT assay)", "setting": "[4]; dose <1 μM, within 24 h", "value": "does not impair cell viability"}, {"measurement": "increase in ESX transcript levels", "setting": "[5]", "value": 5, "unit": "fold"}]}]}
